From article PMC5447021, “TNF Lectin-Like Domain Restores Epithelial Sodium Channel Function in Frameshift Mutants Associated with Pseudohypoaldosteronism Type 1B” (Frontiers in Immunology, 2017)

Legend:
[1] = system: αF435fs (co-expressed with βγ-ENaC); assay: Whole-cell patch clamp, αF435fs + WT βγ; type: cell-based, human; conditions: read-out: EC50, solnatide, HEK-293, whole-cell, -100 mV, n = 7
Protocol: Point mutations of α-, β-, γ- and δ-hENaC and PHA1B frameshift mutations of α-hENaC were prepared with the QuikChange Lightning Site-Directed Mutagenesis Kit (Agilent Technologies, CA, USA). Mutagenic primers were designed individually with the Primer Design Program provided on the producer’s website or for the frameshift mutations the same base changes as reported in patients (see Table 2) were performed. Primers were ordered from Sigma-Aldrich, Vienna, Austria.
HEK-293 cells were transfected 1 day after cell seeding using X-tremeGENE HP DNA transfection reagent (Roche Diagnostics, Mannheim, Germany) according to the manufacturer’s protocol. A set of WT or mutant αβγ- or δβγ-hENaC, or α-, β-, γ-, or δ-hENaC alone was used, and the ratio of DNA to transfection reagent was 1:3. The expression was highest 48–72 h after transfection.
Electrophysiological experiments were performed as described in detail by Shabbir et al. ([16]). […] Currents were recorded with the patch clamp method in the whole-cell mode. The chamber contained 1 ml of the bath solution of the following composition (in mM): 145 NaCl, 2.7 KCl, 1.8 CaCl2, 2 MgCl2, 5.5 glucose, and 10 HEPES, adjusted to pH 7.4 with 1 M NaOH solution. Micropipettes were pulled from thin-walled borosilicate glass capillaries (Harvard Apparatus, Holliston, MA, USA) with a DMZ Zeitz Puller to obtain electrode resistances ranging from 2 to 5 MΩ. […]

αP197fs = assay: Membrane abundance of αP197fs; type: cell-based, human; conditions: 200 nM, relative to WT control (=1), own control 1.18 ± 0.05, p < 0.01 vs control
Protocol: Cell surface biotinylation was performed as previously described ([26]). In brief, A549 cells or transiently transfected HEK-293 cells were grown in 10 cm dishes in 37°C, 5% CO2 incubator in DMEM medium supplemented with 5% FBS. […] Medium was aspirated, and then cells were washed twice with 10 ml ice-cold phosphate-buffered saline (PBS), covered with 2.5 mg EZ-Link Sulfo-NHS-SS-Biotin (Thermo Scientific, Rockford, USA), dissolved in 10 ml ice-cold PBS, and incubated at 4°C with gentle agitation for 30 min. Fifty milliliters of quenching solution were added to cells; then cells were scraped in solution and transferred to fresh 50 ml tube. Cell suspension was centrifuged at 500 × g for 3 min. Supernatant was discarded, and 5 ml of Tris-buffered saline (TBS) was added to the cell pellet. The cell pellet was resuspended and centrifuged at 500 × g for 3 min. Supernatant was discarded and cell pellet was resuspended in lysis buffer containing protease inhibitor cocktail (10 µM pepstatin A, 10 µM phenylmethylsulfonyl fluoride, and 10 µM leupeptin) and transferred to fresh 1.5 ml centrifuge tube. Cell pellet was then homogenized on ice by ultrasonication using 1 s bursts and incubated on ice for at least 30 min. Intact cells and nuclei were pelleted by centrifugation at 10,000 × g for 2 min under cooling conditions. […] Exposed films were scanned and quantified using ImageJ (NIH, MD, USA). […]

C[C@@H]1NC(=O)CNC(=O)[C@H](CCC(=O)O)NC(=O)[C@@H]2CCCN2C(=O)[C@H]([C@@H](C)O)NC(=O)[C@H](CCC(=O)O)NC(=O)[C@H](CCCNC(=N)N)NC(=O)[C@H](CCC(N)=O)NC(=O)CNC(=O)[C@@H](N)CSSC[C@@H](C(=O)O)NC(=O)[C@H](Cc2ccc(O)cc2)NC(=O)[C@H](Cc2c[nH]c3ccccc23)NC(=O)[C@@H]2CCCN2C(=O)[C@H](CCCCN)NC(=O)[C@H](C)NC(=O)[C@H](CCC(=O)O)NC1=O [solnatide, L-cysteine, L-cysteinylglycyl-L-glutaminyl-L-arginyl-L-α-glutamyl-L-threonyl-L-prolyl-L-α-glutamylglycyl-L-alanyl-L-α-glutamyl-L-alanyl-L-lysyl-L-prolyl-L-tryptophyl-L-tyrosyl-, cyclic (1→17)-disulfide]
EC50 [1]: 64.6 ± 8.7 nM | Membrane abundance, solnatide 5 min (αP197fs): 1.33 ± 0.07
